The results in this text go back to patent US12569506B2, “Methods of treating osteonecrosis with LLP2A-bisphosphonate compounds” (The Regents of the University of California, priority 2016, dated 2026).

The test system of one assay is VEGF. Briefly: Serum VEGF levels by ELISA in glucocorticoid-treated mice. It is filed as in vivo. As to conditions: day 56; GC from day 1; LLP2A-Ale given at day 28; ELISA in duplicate (FIG. 4). The procedure: FIG. 4. Serum VEGF-A levels in glucocorticoid-treated mice. Mice treated with placebo (PL), glucocorticoid (GC), glucocorticoid and 250 μg/kg LLP2A-Ale (GC+LLP2A-Ale), glucocorticoid and PTH (GC+PTH), or glucocorticoid and PTH and 250 μg/kg LLP2A-Ale (GC+PTH+LLP2A-Ale) were measured for serum levels of VEGF.
Increased blood vessel formation can also be assessed by marker analysis. For example, VEGF is a pro-angiogenic factor and stimulates new blood vessel formation. […] PTH was given 20 ug/kg 5× a week, while LLP2A-Ale was given at […] at day 28 only.
In general terms: In an ELISA, binding on a coated surface is turned into a signal by an enzyme label.

The test system of assay [1] is dexamethasone-treated mice. Briefly: Histological evaluation (H&E) of femoral epiphyses, 90 day model. It is filed as in vivo, BALB/c mice. The procedure:
FIG. 9A-9F. Histological evaluation of femurs from placebo- or dexamethasone-treated mice. Mice were treated with placebo (PL) or dexamethasone alone (Dex) as described above for FIG. 7. All mice were euthanized at day 90. Right and left distal femurs were fixed in 10% neutral buffer formalin and decalcified. The specimens were dehydrated, embedded in paraffin, cut into 5 micron sections and H&E stained. The sections were scored by two experienced histologists and then a consensus reading was performed by two additional histologists. FIG. 9A-9B: 4× (A) and 20× (B) magnifications of representative proximal femoral epiphyses in mice treated with placebo. (C) 4× magnification of a representative proximal femoral epiphyses in mice treated with dexamethasone (Dex) alone. FIGS. 9D, 9E, and 9F: 20× magnifications of representative proximal femoral epiphyses in mice treated with dexamethasone (Dex) alone.
FIG. 11A-11F. Histological evaluation of femurs from LLP2A-Ale-treated mice. Mice were treated with Dex+250 μg/kg LLP2A-Ale as described above for FIG. 7. All mice were euthanized at day 90. Right and left distal femurs were fixed in 10% neutral buffer formalin and decalcified. The specimens were dehydrated, embedded in paraffin, cut into 5 micron sections and H&E stained. The sections were scored by two experienced histologists and then a consensus reading was performed by two additional histologists. (A, D): 4× magnifications of representative proximal femoral epiphyses in mice treated with Dex+LLP2A-Ale. (B, C, E, F): 20× magnifications of representative proximal femoral epiphyses in mice treated with Dex+LLP2A-Ale.
Both the right and left distal femurs were fixed in 10% neutral buffered formalin and were shaken for 3 days, then decalcified in 5% EDTA until the bones were fully decalcified. The specimens were then processed in ascending concentrations of ethanol and embedded in paraffin. Tissue sections were cut into 5 microns sections, stained with hematoxylin and eosin and evaluated for the presence of osteonecrosis by bright field microscopy at 20× magnification. Experimental methods are also described in Mohan et al., Calif Tissue Int (2016) doi:10.1007/s00223-016-0195-6, which is incorporated herein by reference in its entirety for all purposes. Osteonecrosis was detected using modified criteria reported by Yang el al., (a mouse model for glucocorticoid-induced osteonecrosis: Effect of a steroid holiday. J Orthop Res. 2009; 27:169-75) which defines osteonecrosis as requiring all of the following changes: (1) empty lacunae, (2) pyknotic osteocyte nuclei in areas of empty lacunae and necrosis of adjacent bone marrow, (3) presence of excessive fat cells in the bone marrow, (4) cartilage degradation and (5) presence of fibrin thrombi in the blood vessels. In addition, trabecular bone volume, adipose volume, sinusoid volume and osteoblast surface at the distal femoral epiphyses were measured. Empty lacunae density was calculated by empty lacunae/total osteocytes within the entire distal femoral epiphysis region for each sample. Each section was scored by two experienced histologists, then a consensus reading was performed by two additional experienced histologists.

Assay [2] deals with dexamethasone-treated mice. Briefly: 30 and 45 day prevention study: incidence of glucocorticoid-induced osteonecrosis. The conditions noted are these: 30 or 45 days; Dex + LLP2A-Ale 250 or 500 μg/kg, or Dex + 40 μg/kg hPTH five times a week (FIG. 12). It is filed as in vivo, BALB/c mice. The procedure:
FIG. 12. Reduction in incidence of glucocorticoid-induced osteonecrosis in mice treated with recombinant LLP2A-Ale. Mice were randomized into placebo (PL) (fresh water), dexamethasone (Dex) 4 mg/l in drinking water, Dex+250 μg/kg LLP2A-Ale, Dex+500 μg/kg LLP2A-Ale, or Dex+40 μg/kg hPTH (1-34) groups for a 30 day treatment period or a 45 day treatment period. The incidence of Dex-induced osteonecrosis was 57% on day 30 and 73% on day 45.
The efficacy of LLP2A-Ale and hPTH (1-34) was evaluated over a 30 and 45 day study using a mouse model of glucocorticoid-induced osteonecrosis. Seven week-old male BALB/c mice were randomized into Placebo group (fresh water), glucocorticoid only (4 mg/L dexamethasone (Dex) in drinking water), Dex+250 μg/kg LLP2A-Ale, Dex+500 μg/kg LLP2A-Ale, or Dex+40 μg/kg hPTH (administered five times a week) for 30 or 45 days. At day 30 or 45, the mice were sacrificed. Study endpoints included histological evidence of osteonecrosis, bone mass, and prevalent blood vessels (CD31 and Endomucin expression) in the distal femur, and was performed as set forth in Example 2. Non-parametric Kruskal-Wallis tests were used to determine the differences between the groups.

Entries after “also recorded” stand apart in the source; their conditions may differ.

As for `Cc1ccccc1NC(=O)Nc1ccc(CC(=O)N[C@@H](CCCCNC(=O)/C=C/c2cccnc2)C(=O)N[C@@H](CCCC(=O)O)C(=O)NC2(C(=O)NCCOCCOCCNC(=O)CCC(=O)NCCOCCOCCNC(=O)CCC(=O)N[C@@H](CCCCNC(=O)[C@H](N)CSC3CC(=O)N(CC4CCC(C(=O)NCCCC(O)(P(=O)(O)O)P(=O)(O)O)CC4)C3=O)C(N)=O)CCCCC2)cc1` (stereo partly drawn) [LLP2A-Ale], the “Serum levels of VEGF” value in the assay with VEGF was “returned the levels of serum VEGF to those of placebo treated animals”. In assay [1] (Dex+250 μg/kg LLP2A-Ale, day 90, H&E (FIG. 11)), the “Sinusoid formation (histological sections of epiphyses)” value was “increased sinusoid formation; also recorded: increase in sinusoid formation”. Further, the “Amount of fibrin within the bone marrow” value in assay [1] (day 90) is “appeared to reduce the amount of fibrin”. Also, the “Number of osteoblasts on the bone surface in areas of osteonecrosis” value in assay [1] (epiphyses, day 90) is “increased the number of osteoblasts”. Moreover, in assay [1] (vs dexamethasone alone, day 90), the “Adipocyte density in the bone marrow” value was “appeared to reduce”, the “Cellularity of the bone marrow” value is on record as “maintained the cellularity of the bone marrow”, the “Number of empty lacunae/pyknotic nuclei” value was “appeared to reduce” and the “Sinusoidal red blood cell volume” value is listed as “increased the sinusoidal red blood cell volume”. Further, the “Prevalence/incidence of glucocorticoid-induced osteonecrosis lesions (in words)” value in assay [2] was “prevented incident GC-induced osteonecrosis lesions; also recorded: reduced the incidence and severity of osteonecrosis; also recorded: prevented glucocorticoid-induced osteonecrotic lesions”.
